From patent US8273775B2, “Non-steroidal brassinosteroid mimetic” (priority 2006, dated 2012)

Key:
[1] = test system: bri1-116 plants grown in soil; test: Rescue of soil-grown mutants by watering; format: in vivo, Arabidopsis thaliana; settings: watered with 2 ml 300 μM ABRASIN per day
Method: FIG. 15: Phenotype rescue of brit-116 and cpd mutants. (A.) The mutant and Col-0 plants were germinated on MS+DMSO medium till day 5 and afterwards transferred on MS supplemented with DMSO, 1 μM BL or 30 μM ABRASIN until day 11. Treatment with BL rescues the cpd mutant phenotype but not bri1-116 while ABRASIN rescues both mutants. […] BL: brassinolide; BIK: abrasin.
Col-0, the null BR signaling bri1-116 (Friedrichsen et al., 2000) and BR biosynthetic cpd (Szekeres et al., 1996) mutants were subjected to phenotype rescue analysis by treatments with BL and ABRASIN. As a negative control, dimethylsulfoxide (DMSO) was used. Plants were germinated in vitro for 5 days on ½ MS containing DMSO medium and from day 6th to day 11th they were transferred on medium supplemented with BL (10 nM, 100 nM, 1000 nM), ABRASIN (5 μM, 10 μM, 30 μM) or DMSO. Cotyledons and leaves were collected for flowcytometric analysis at the 11th day (i.e. 6 days of treatments). Samples for β-glucuronidase (GUS) assay were taken on day 6th (i.e. 1 day treatments), 8th (i.e. 3 days treatments), 10th (i.e. 5 days treatments). Rescue of soil-grown mutants at different growth stages was checked by watering bri1-116 and cpd mutants with either BL or 2 ml 300 μM ABRASIN per day.

AtMPK6 = AtMPK6 (Arabidopsis thaliana, UniProt Q39026); test: Kinase assay with AtMPK6 and MBP as substrate; format: biochemical; settings: 10 μM abrasin
Chain of AtMPK6 (Q39026 whole entry): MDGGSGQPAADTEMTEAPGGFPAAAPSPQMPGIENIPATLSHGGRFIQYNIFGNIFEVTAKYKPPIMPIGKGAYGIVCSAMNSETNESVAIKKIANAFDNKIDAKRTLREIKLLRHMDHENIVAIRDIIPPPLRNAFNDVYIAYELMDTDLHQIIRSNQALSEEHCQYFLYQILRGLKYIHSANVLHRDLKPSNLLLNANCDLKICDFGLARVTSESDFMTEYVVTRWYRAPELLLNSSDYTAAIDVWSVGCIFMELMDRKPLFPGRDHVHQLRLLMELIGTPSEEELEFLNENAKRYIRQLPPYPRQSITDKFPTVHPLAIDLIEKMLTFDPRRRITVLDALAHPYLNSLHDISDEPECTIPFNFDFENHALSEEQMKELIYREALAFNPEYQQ
Method: (§1) Coomassie staining was used as a loading control. b, Autoradiography of kinase assays with nine ASKs with MBP as a substrate in the presence or absence of 10 μM abrasin. The second member of group IV, ASKκ, had no kinase activity and was not included in the analysis. c, Autoradiography of kinase assays with AtMPK4, AtMPK6 and MBP as a substrate (left) and with AtAUR1 kinase and histone H3 as a substrate (right) in the presence or absence of 10 μM abrasin.
(§2) For in vitro kinase assays, MBP, MBP-BES1, and MBP-bes1 (20 ng each) were incubated with GST-BIN2 or GST-BRI1 kinase (200 ng each) in 20 μl of kinase buffer (20 mM Tris [pH 7.5], 100 mM NaCl, and 12 mM MgCl2) and 10 μCi ^32P-γATP. After incubation at 37° C. for 40 min, the reactions were stopped by adding 20 μl of 2×SDS buffer and boiling at 94° C. for 5 min. Proteins were resolved by a PAGE gel and phosphorylation was detected by exposing the dried gel to X-ray film. […]
(§3) Besides BIN2, nine additional GSK-3 kinases (also designated ASKs for Arabidopsis SHAGGY-related kinases) divided into four subgroups (I-IV) have been identified in Arabidopsis (Jonak and Hirt, 2002; Yoo et al. 2006). To determine the specificity of abrasin, its effect on the kinase activity of all ASKs was analyzed with myelin basic protein (MBP) as a general substrate. […]

AtMPK4 = target: T1, AtMPK4 (Arabidopsis thaliana, UniProt Q39024); test: Kinase assay with AtMPK4 and MBP as substrate; format: biochemical; settings: 10 μM abrasin
T1 sequence (Q39024 1-376): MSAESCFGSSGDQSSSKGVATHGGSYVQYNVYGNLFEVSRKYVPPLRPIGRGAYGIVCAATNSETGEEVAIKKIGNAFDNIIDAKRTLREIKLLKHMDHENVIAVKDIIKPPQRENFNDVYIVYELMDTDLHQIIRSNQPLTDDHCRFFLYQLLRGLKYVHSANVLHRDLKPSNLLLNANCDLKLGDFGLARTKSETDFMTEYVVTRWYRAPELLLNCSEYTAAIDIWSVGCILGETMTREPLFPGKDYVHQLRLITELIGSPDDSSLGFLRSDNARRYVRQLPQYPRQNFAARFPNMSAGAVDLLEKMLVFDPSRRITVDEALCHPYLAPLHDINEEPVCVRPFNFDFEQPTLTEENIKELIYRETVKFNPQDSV
Method: as §1, §2, §3

ASKβ (group III) = target: T2, ASKβ (group III) (Arabidopsis thaliana, UniProt O23145); test: ASK kinase assay with MBP as substrate, ASKβ; format: biochemical; settings: 10 μM abrasin
T2 sequence (O23145 1-431): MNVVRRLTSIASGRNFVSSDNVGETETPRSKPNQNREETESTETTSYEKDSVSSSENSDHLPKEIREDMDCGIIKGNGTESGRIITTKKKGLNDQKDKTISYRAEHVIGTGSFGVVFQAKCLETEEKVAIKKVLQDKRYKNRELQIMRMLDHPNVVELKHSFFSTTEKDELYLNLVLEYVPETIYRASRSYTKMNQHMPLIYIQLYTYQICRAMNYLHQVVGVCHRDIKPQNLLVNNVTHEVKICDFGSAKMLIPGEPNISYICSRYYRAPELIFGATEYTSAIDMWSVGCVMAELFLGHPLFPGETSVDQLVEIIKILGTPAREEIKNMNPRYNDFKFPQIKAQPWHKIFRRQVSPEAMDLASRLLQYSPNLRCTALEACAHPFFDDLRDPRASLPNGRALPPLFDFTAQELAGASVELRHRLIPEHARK
Method: Coomassie staining was used as a loading control. b, Autoradiography of kinase assays with nine ASKs with MBP as a substrate in the presence or absence of 10 μM abrasin.
For in vitro kinase assays, MBP, MBP-BES1, and MBP-bes1 (20 ng each) were incubated with GST-BIN2 or GST-BRI1 kinase (200 ng each) in 20 μl of kinase buffer (20 mM Tris [pH 7.5], 100 mM NaCl, and 12 mM MgCl2) and 10 μCi ^32P-γATP. After incubation at 37° C. for 40 min, the reactions were stopped by adding 20 μl of 2×SDS buffer and boiling at 94° C. for 5 min. Proteins were resolved by a PAGE gel and phosphorylation was detected by exposing the dried gel to X-ray film. Proteins from 35S::bes1-GFP transgenic plants were used for phosphatase (CIP) treatments as described (Fankhauser et al., 1999).
Besides BIN2, nine additional GSK-3 kinases (also designated ASKs for Arabidopsis SHAGGY-related kinases) divided into four subgroups (I-IV) have been identified in Arabidopsis (Jonak and Hirt, 2002; Yoo et al. 2006). To determine the specificity of abrasin, its effect on the kinase activity of all ASKs was analyzed with myelin basic protein (MBP) as a general substrate.

## O=C(O)CCC(=O)Nc1ccc(Br)cn1 [abrasin, 4-[(5-bromo-2-pyridinyl)amino]-4-oxobutanoic acid]
[1]
  phenotype change of soil-grown mutant: sufficient to slightly change the phenotype of 1 month-old bri1-116 plants in a week
AtMPK6
  effect on kinase activity: no effect
AtMPK4
  effect on kinase activity: no effect
ASKβ (group III)
  effect on kinase activity: not affected
